In the PolyMetriX glass transition set:
± gives the standard deviation of the reports.

SMILES	glass transition temperature
*Oc1ccc2cc(Oc3ccc4c(=O)n5c6cc(-c7ccc8c(c7)nc7c9ccc(*)c%10cccc(c(=O)n87)c%109)ccc6nc5c5cccc3c45)ccc2c1 (repeat unit)	413.00 °C
*c1ccc2c(c1)C(=O)N(c1ccc(Oc3ccc(C(C)(C)c4ccc(Oc5ccc(N6C(=O)c7ccc(C(*)(C(F)(F)F)C(F)(F)F)cc7C6=O)cc5)cc4)cc3)cc1)C2=O (repeat unit)	246.70 ± 3.3 °C
*C(=O)Nc1ccc(Sc2ccc(NC(=O)c3ccc4c(c3)C(=O)N(c3ccc(Oc5ccc(C6(c7ccc(Oc8ccc(N9C(=O)c%10ccc(*)cc%10C9=O)cc8)cc7)NC(=O)c7ccccc76)cc5)cc3)C4=O)cc2)cc1 (repeat unit)	312.00 °C
*/C(C)=C(/*)[Si](C)(C)CC[Si](C)(C)C (repeat unit)	200.00 °C
*CC(*)(C)C(=O)OCc1ccc[se]1 (repeat unit)	56.00 °C
*c1ccc2c(c1)C(=O)N(c1ccc(Oc3ccc(Oc4ccc(N5C(=O)c6ccc(C(*)(C(F)(F)F)C(F)(F)F)cc6C5=O)cc4)cc3)c(C(F)(F)F)c1)C2=O (repeat unit)	260.80 °C
*Oc1ccc(C(C)(C)c2ccc(Oc3c(F)c(F)c(COC(c4cccc(C(OCc5c(F)c(F)c(*)c(F)c5F)(C(F)(F)F)C(F)(F)F)c4)(C(F)(F)F)C(F)(F)F)c(F)c3F)cc2)cc1 (repeat unit)	98.00 °C
*O[Si](*)(C)c1c(F)c(F)c(F)c(F)c1F (repeat unit)	-25.00 °C
*CC(*)c1cccc(O)c1 (repeat unit)	169.00 °C
*O[Si](C)(C)c1ccc([Si](C)(C)Oc2c(C)cc(-c3cc(C)c(*)c(C)c3)cc2C)cc1 (repeat unit)	67.00 °C
*Oc1ccc(S(=O)(=O)c2ccc(Oc3ccc(/N=C/c4ccc(*)cc4)cc3)cc2)cc1 (repeat unit)	110.00 °C
*c1ccc(Oc2ccc(-c3cc(OCCCCCC)c(-c4ccc(Oc5ccc(-c6nnc(*)o6)cc5)cc4)cc3OCCCCCC)cc2)cc1 (repeat unit)	103.00 °C
*Oc1ccc(NC(=O)c2ccc(C(c3ccc(C(=O)Nc4ccc(Oc5ccc(C6(c7ccc(*)cc7)C7CC8CC(C7)CC6C8)cc5)cc4)cc3)(C(F)(F)F)C(F)(F)F)cc2)cc1 (repeat unit)	241.00 °C
*c1cccc(Oc2cccc(Oc3cccc(N4C(=O)c5c(c(-c6ccccc6)c(-c6ccc(Oc7ccc(Oc8ccc(-c9c(-c%10ccccc%10)c%10c(c(-c%11ccccc%11)c9-c9ccccc9)C(=O)N(*)C%10=O)cc8)cc7)cc6)c(-c6ccccc6)c5-c5ccccc5)C4=O)c3)c2)c1 (repeat unit)	238.00 °C
*OC(C)CCCC(C)C(*)=O (repeat unit)	-33.00 °C
*CC(O)CN(*)c1cc(C)cc(C)c1 (repeat unit)	80.00 °C
*C(=O)c1ccc(Oc2ccc(C3(c4ccc(Oc5ccc(*)s5)cc4)c4ccccc4-c4ccccc43)cc2)cc1 (repeat unit)	195.00 °C
*c1ccc(Oc2ccc(C(C)(C)c3ccc(Oc4ccc(-c5nnc(*)n5-c5ccc(S(=O)(=O)c6ccccc6)cc5)cc4)cc3)cc2)cc1 (repeat unit)	198.00 °C
*O/C(=C/CC)C(CC)C(*)=O (repeat unit)	-15.90 °C
*CCN(*)C(=O)c1ccccc1 (repeat unit)	111.00 °C
*c1ccc(C2(c3ccc(N4C(=O)c5ccc(-c6ccc7c(c6)C(=O)N(*)C7=O)cc5C4=O)cc3)c3ccccc3-c3ccccc32)cc1 (repeat unit)	388.00 °C
*Oc1ccc(/N=C/c2ccc(Oc3ccc(C(c4ccccc4)(c4ccccc4)c4ccc(Oc5ccc(/C=N/c6ccc(*)cc6)cc5)cc4)cc3)cc2)cc1 (repeat unit)	211.00 °C
*c1ccc(Oc2ccc(C(C)(C)c3ccc(Oc4ccc(N5C(=O)C6CCC7C(=O)N(*)C(=O)C7C6C5=O)cc4)cc3)cc2)cc1 (repeat unit)	263.50 °C
*CC(*)NC(=O)OC(C)(C)C (repeat unit)	120.00 °C
*CCCCCOc1ccc(OCCCCCc2nnc(-c3ccc(-c4nnc(*)o4)cc3)o2)c(C)c1 (repeat unit)	95.00 °C
*c1cccc(-c2nc3cc(-c4ccc5nc(-c6ccccc6)c(*)nc5c4)ccc3nc2-c2ccccc2)c1 (repeat unit)	320.00 °C
*CCCCCCCCCCOc1ccc(/N=C/c2ccc(/C=N/c3ccc(O*)cc3C)cc2)c(C)c1 (repeat unit)	77.60 °C

Second part, the compound after the results:

glass transition temperature	SMILES
156.00 °C	*Nc1cc(NC(=O)NC2CCC(CC3CCC(NC(*)=O)CC3)CC2)cc(C(=O)Nc2cccc3c2C(=O)c2ccccc2C3=O)c1 (repeat unit)
200.00 °C	*Oc1ccc(Oc2ccc(Oc3ccc(NC(=O)c4ccc(-c5ccc(C(=O)Nc6ccc(*)cc6)c(C)c5)cc4C)cc3)cc2)cc1 (repeat unit)
280.00 °C	*c1ccc(NC(=O)CN2C(=O)c3ccc(C(c4ccc5c(c4)C(=O)N(CC(=O)Nc4ccc(-c6nnc(*)o6)cc4)C5=O)(C(F)(F)F)C(F)(F)F)cc3C2=O)cc1 (repeat unit)
114.00 °C	*CCCCCCCCCCCC(=O)Oc1ccc(C2(c3ccc(OC(=O)c4ccc5c(c4)C(=O)N(*)C5=O)cc3)OC(=O)c3ccccc32)cc1 (repeat unit)
61.00 °C	*CCCCCOc1cccc(C(=O)OC(=O)c2cccc(O*)c2)c1 (repeat unit)
225.00 °C	*Oc1ccc(-c2ccc(Oc3ccc(C(=O)c4ccc(*)c(S(=O)(=O)O)c4)cc3S(=O)(=O)O)cc2)cc1 (repeat unit)
150.00 °C	*C1C(=O)N(CCOc2ccc(-c3ccc(C#N)cc3)cc2)C(=O)C1* (repeat unit)
19.40 °C	*CC(*)(C)C(=O)OCc1ccc(Cl)cc1Cl (repeat unit)
213.50 °C	*c1ccc(C(=O)c2ccc(C(=O)c3ccc(S(*)(=O)=O)cc3)cc2)cc1 (repeat unit)
20.00 °C	*CC(*)OC(=O)CC(C)(C)c1ccccc1 (repeat unit)
142.00 °C	*Oc1ccc2ccc(OC(=O)c3ccc(Oc4ccc(C(*)=O)cc4)cc3)cc2c1 (repeat unit)
60.00 °C	*CC(COc1ccc(C(C)(C)c2ccc(O*)cc2)cc1)OC(=O)CC (repeat unit)
252.00 °C	*c1ccc(CC(=O)Nc2ccc(S(=O)(=O)c3ccc(NC(=O)Cc4ccc(-c5sc(*)c(-c6ccccc6)c5-c5ccccc5)cc4)cc3)cc2)cc1 (repeat unit)
238.00 °C	*Oc1ccc(S(=O)(=O)c2ccc(*)cc2)c2ccccc12 (repeat unit)
151.00 °C	*Oc1ccc(C(C)(C)c2ccc(Oc3ccc(C(O)C(O)c4ccc(*)cc4)cc3)cc2)cc1 (repeat unit)
66.00 °C	*CC(C)(C)COC(=O)NC(=O)c1cccc(C(=O)NC(=O)O*)c1 (repeat unit)
224.00 °C	*Oc1ccc(Oc2ccc(C(=O)c3ccc(NC(=O)c4ccc(C(=O)Nc5ccc(C(=O)c6ccc(*)cc6)cc5)cc4)cc3)cc2)cc1 (repeat unit)
48.00 °C	*Oc1ccc(CC(NC(=O)CCc2ccc(OC(=O)CCC(*)=O)cc2)C(=O)OCCCCCCCC)cc1 (repeat unit)
